Laboratory results published in patent publication EP2924039A1, “2-Amino-1-phenyl-pyrrolo[3,2-b]quinoxaline-3-carboxamide derivates” (Universität Zürich, priority 2014, dated 2015).

Tests used:
EphA3 [1] = target: T1, EphA3 (Homo sapiens, UniProt P29320); assay: Surface Plasmon Resonance (SPR) determination of Kd; type: binding; conditions: immobilized EphA3, 20 mM PBS pH 7.4, 150 mM NaCl
T1 construct: A clone of EphA3 kinase domain (residues: 606-947); made in house; host or cells: Escherichia coli BL21 (DE3)
T1 sequence (P29320 606-947): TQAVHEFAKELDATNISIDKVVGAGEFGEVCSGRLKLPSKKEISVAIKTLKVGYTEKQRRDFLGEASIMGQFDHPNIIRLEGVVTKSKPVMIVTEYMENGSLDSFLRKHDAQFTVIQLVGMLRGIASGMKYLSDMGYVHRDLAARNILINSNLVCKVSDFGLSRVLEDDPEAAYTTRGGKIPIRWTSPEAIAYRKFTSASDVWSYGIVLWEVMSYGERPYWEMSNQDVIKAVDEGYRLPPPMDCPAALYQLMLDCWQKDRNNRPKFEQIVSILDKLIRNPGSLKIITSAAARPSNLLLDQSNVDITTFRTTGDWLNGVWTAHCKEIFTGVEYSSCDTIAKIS
Excerpt: The EphA3-compound dissociation constant (Kd) in Table 2 were obtained following the experimental protocol of Jecklin M.C., et al (Journal of Molecular Recognition 22(4), 319-329), subject to the following modifications: • 1) EphA3 protein was purified as per the protocol given in the "Experimental Section" of Lafleur K., Dong J., Huang D., Caflisch A. and C. Nevado (Journal of Medicinal Chemistry, 2013; 56(1):84-96), under the header "Protein Expression and Purification". Protein concentration was determined using a NanoDrop 1000 from Thermo Scientific (Witec AG, Littau LU, Switzerland). • 2) Under "Instrumentation and reagents": 20 mM PBS pH 7.4, 150 mM NaCl was used as running buffer. • 3) Under "Enzyme immobilization": Following activation of flow cells, 300 µg/ml of EphA3 in immobilization buffer was injected over a 2 minute time period. Residual activated groups on the surface were then blocked by a 7 minute injection of 1 M ethanolamine, pH 8.5. […] Each suspension was then analyzed, commencing from the lowest and proceeding to the highest concentration, and then run in duplicate from the highest to the lowest concentration. During each binding cycle, the compound suspension was injected during a time period of 6 minutes at a flow rate of 5 µl/min and dissociation was monitored for 900 s. […]

EphA3 [2] = target: T1, EphA3; assay: Differential Scanning Fluorimetry; type: binding; conditions: 2 µM EphA3, compound 20µM; read-out: Delta Tm
Protocol: Cell pellets were resuspended in buffer A (50mM Tris, pH 8.0 and 100mM NaCl, supplemented with protease inhibitors) and lysed by sonication. After centrifugation at 15,000 rpm for 1 h, the soluble fraction of EphA3 was purified using […] (GE healthcare), followed by gel filtration chromatography (Superdex75; GE healthcare). The appropriate fractions were combined and concentrated to ~10 mg/mL using Amicon filter devices (10kDa as cutoff) in a storage solution (100mM sodium chloride and 10mM Tris-HCl pH 8.0, 5% glycerol). The resulting solution was aliquoted and stored at -80°C for further usage.
A final volume of 40µL was added per well in a 96 well plate and incubated at room temperature for 1 h. The plates were centrifuged for 3 min at 450 rcf. The temperature gradient was performed in the range of 25°C-75°C (50 acquisitions per degree at a ramp rate of 4.4°C/s) using a LightCycler 480 Real-Time PCR System. […] All measurements were performed in triplicate.

[3] = In vivo pharmacokinetics in blood plasma; design: species or system male CD-1 (ICD) mice; conditions: for T1/2 (min, PO) / Cmax / Tmax: 5 mg/kg, PO; for Bio-availability (%): [AUClast(PO)*Dose(IV)] / [AUClast(IV)*Dose(PO)], PO 5 mg/kg, IV 1 mg/kg; for Tmax: read-out: Tmax (min, PO) (converted)
Protocol: Evaluation of the in vivo pharmacokinetics of a subset of compounds was performed through analysis of compound concentration in the blood plasma of male CD-1 (ICD) mice (each weighing 20-30g) over a 24 hour period (at time points of 3, 10, 30, 60, 120, 240, 360 and1440 minutes) following a single oral (PO) and intravenous (IV, in tail vein) administration of a compound dose corresponding to 5 mg of compound/kg of mouse body weight (PO) and 1 mg of compound/kg of mouse body weight (IV). For IV dosing, each compound was formulated as a clear solution in DMSO/Solutol® HS 15/phosphate-buffered saline, pH 7.4 (PBS) (5/5/90, v/v/v). For PO dosing, compounds were formulated as a homogeneous suspension in DMSO/1% methylcellulose (5/95, v/v).
At the relevant time point, blood samples (300-400 µL) were collected from the mice under general inhalant anaesthesia by cardiac puncture and stored on ice in 0.6 mL polypropylene heparin-lithium-coated tubes. Within 1 hour of collection, each tube was centrifuged at 2500 G for 15 minutes at 4°C and harvested plasma stored at -20°C.
Compound concentration in plasma at each time point was determined following acetonitrile precipitation of each sample followed by HPLC-MS analysis performed in triplicates, i.e., based on the mean of the compound concentration at that time point in blood samples of three mice.
T1/2 is the terminal elimination half-life following IV and PO dosing (obtained from non-compartmental analysis (NCA) of the plasma data using WinNonLin). Tmax is the time following PO administration at which the maximum concentration is observed (obtained from non-compartmental analysis (NCA) of the plasma data using WinNonLin). Cmax corresponds to the concentration observed at Tmax following PO administration (obtained from non-compartmental analysis (NCA) of the plasma data using WinNonLin). Bioavailability was calculated as the ratio of: [AUClast(PO)*Dose(IV)] / [AUClast(IV)*Dose(PO)] where AUClast is the area under the curve (estimated by summing incremental areas of a series of trapezoids) of a plot of compound concentration versus time, up to the time of the last observation that is greater than the limit of quantification. Table 6: In vivo pharmacokinetics (min: minutes)

[4] = male, CD-1 (ICD), mouse, mice plasma

| Kd (EphA3 [1]) [nM] | ΔTm at 20 µM (EphA3 [2]) [°C] | T1/2 (min, IV) ([3]; IV, 1 mg/kg, mice plasma) [h] | T1/2 (min, PO) ([3]; mice plasma) [h] | Bio-availability (%) [3] [%] | Cmax [3, 4] [ng/mL] | Tmax [3, 4] [h] | half-life ([3]; male, CD-1 (ICD), mouse, IV, 1 mg/kg, mice plasma, read-out: T1/2 (min, IV)) [h] | Compound |
| --- | --- | --- | --- | --- | --- | --- | --- | --- |
| 3.7 | 9.1 | 1.1 | 2.78 | 30 | 164 | 1 |  | NC(=O)c1c(N)n(-c2cccc(C(=O)Nc3cccc(C(F)(F)F)c3)c2)c2nc3ccccc3nc12 [Compound 10c, 2-amino-1-(3-((3-(trifluoromethyl)phenyl)carbamoyl)phenyl)-1H-pyrrolo[2,3-b]quinoxaline-3-carboxamide] |
| 40.1 | 7.6 |  | 4.95 | 10 | 45 | 2 | 1.18 | NC(=O)c1c(N)n(-c2cccc(NC(=O)c3cccc(C(F)(F)F)c3)c2)c2nc3ccccc3nc12 [Compound 10d, 2-amino-1-(3-(3-(trifluoromethyl)benzamido)phenyl)-1H-pyrrolo[2,3-b]quinoxaline-3-carboxamide] |
